From the NIST ThermoML archive (doi:10.1016/j.tca.2012.12.004)
Numbers after ± are expanded uncertainties.

Assay: molar heat capacity at constant pressure; xn = mol fraction of the nth substance listed
Settings: 101 kPa, Crystal, Small (less than 1 g) adiabatic calorimetry, x1 = 0.7

[Ba+2].[F-].[F-] [barium difluoride] + [F][La]([F])[F]
Settings	molar heat capacity at constant pressure [J/K/mol]
10 K	0.3566 ± 0.2
15 K	1.198 ± 0.2
20 K	2.757 ± 0.21
25 K	4.992 ± 0.22
30 K	7.683 ± 0.23
35 K	10.6 ± 0.24
40 K	13.58 ± 0.25
45 K	16.57 ± 0.27
50 K	19.51 ± 0.28
60 K	25.25 ± 0.3
70 K	30.71 ± 0.32
80 K	35.83 ± 0.34
90 K	40.57 ± 0.36
100 K	44.9 ± 0.38
110 K	48.81 ± 0.4
120 K	52.33 ± 0.41
130 K	55.47 ± 0.42
140 K	58.27 ± 0.43
150 K	60.76 ± 0.44
160 K	62.98 ± 0.45
170 K	64.95 ± 0.46
180 K	66.7 ± 0.47
190 K	68.28 ± 0.47
200 K	69.68 ± 0.48
210 K	70.94 ± 0.48
220 K	72.07 ± 0.49
230 K	73.09 ± 0.49
240 K	74.02 ± 0.5
250 K	74.85 ± 0.5
260 K	75.6 ± 0.5
270 K	76.29 ± 0.51
280 K	76.91 ± 0.51
290 K	77.48 ± 0.51
298.15 K	77.91 ± 0.51
300 K	78.01 ± 0.51
310 K	78.48 ± 0.51
320 K	78.93 ± 0.52
330 K	79.33 ± 0.52
340 K	79.7 ± 0.52
